The source of these data is patent US7897582B2, “Oligonucleotide compositions and methods for the modulation of the expression of B7 protein” (Isis Pharmaceuticals, Inc., priority 2003, dated 2011).

e = 2'-O-(2-methoxyethyl) (MOE); d = 2'-deoxy (DNA) A value given as a limit tells only on which side of the number the result lay.

Data set [1] has as its system B7.2 mRNA. Put plainly: B7.2 mRNA in lung and draining lymph nodes of ovalbumin-challenged mice, quantitative RT-PCR. Type of data set: in vivo, mouse. The protocol:
(§1) RNA was harvested from experimental lungs removed on day 28 of the OVA protocol. B7.2 and B7.1 levels were measured by quantitative RT-PCR using the Applied Biosystems PRISM 7700 Sequence Detection System (Applied Biosystems, Foster City, Calif.). Primers and probes used for these studies were synthesized by Operon Technologies (Alameda, Calif.).

Data set [2] deals with ovalbumin-challenged Balb/c mice. As to the kind of experiment: Ovalbumin-induced mouse model of allergic inflammation (Penh, BAL cells, histology, cytokines, spleen). The data set is classed as in vivo. The procedure: In the mouse model of allergic inflammation, mice were sensitized and challenged with aerosolized chicken ovalbumin (OVA). Airway responsiveness was assessed by inducing airflow obstruction with a methacholine aerosol using a noninvasive method. This methodology utilized unrestrained conscious mice that are placed into the main chamber of a plthysmograph (Buxco Electronics, Inc., Troy, N.Y.). Pressure differences between this chamber and a reference chamber were used to extrapolate minute volume, breathing frequency and enhanced pause (Penh). Penh is a dimensionless parameter that is a function of total pulmonary airflow in mice (i.e., the sum of the airflow in the upper and lower respiratory tracts) during the respiratory cycle of the animal. The lower the Penh, the greater the airflow. This parameter closely correlates with lung resistance as measured by traditional invasive techniques using ventilated animals (Hamelmann . . . Gelfand, 1997). Dose-response data were plotted as raw Penh values to increasing concentrations of methacholine. […]
Female Balb/c mice (Charles Rivers Laboratory, Taconic Farms, N.Y.) were maintained in micro-isolator cages housed in a specific pathogen-free (SPF) facility. […] Animals were analyzed about 24 hours following the last nebulization using the Buxco electronics Biosystem. Lung function (Penh), lung histology (cell infiltration and mucus production), target mRNA reduction in the lung, inflammation (BAL cell type & number, cytokine levels), spleen weight and serum AST/ALT were determined. […]
Cytospins of cells recovered from BAL fluid were prepared using a Shandon Cytospin 3 (Shandon Scientific LTD, Cheshire, England). […] Total cell counts were quantified by hemocytometer and, together with the percent type by differential, were used to calculate specific cell number.
Before resection, lungs were inflated with 0.5 ml of 10% phosphate-buffered formalin and fixed overnight at 4° C. […] Parasagittal sections were analyzed by bright-field microscopy. Mucus cell content was assessed as the airway epithelium staining with PAS. […]

Data set [3] relates to B7.1 mRNA. Put plainly: B7.1 mRNA in lung and draining lymph nodes of ovalbumin-challenged mice, quantitative RT-PCR. The data set is classed as in vivo, mouse. Particulars: lung tissue and draining lymph nodes of allergen-challenged mice. The procedure: as §1
Data set [4] concerns B7-1 mRNA. Put plainly: Mouse B7-1 target mRNA reduction in L-929 fibroblasts (RT-PCR). Particulars: 100 nM. Type of data set: cell-based. The procedure: Both of these oligonucleotides are phosphorothioates with 2′-MOE modifications on nucleotides 1-5 and 16-20, and 2′-deoxy at positions 6-15. These ASOs were identified by mouse-targeted ASO screening by target mRNA reduction in mouse cell lines. For B7-2, 19 mouse-targeted ASOs were screened by target mRNA reduction (Northern analysis) in IC-21 macrophages. Dose-response confirmation led to selection of ISIS 121874 (>70% reduction at 25 nM). For B7-1, 22 mouse-targeted ASOs were screened by target mRNA reduction (RT-PCR) in L-929 fibroblasts. Dose-response confirmation led to selection of ISIS 121844 (>70% reduction at 100 nM). No cross hybridization was predicted, and no cross-target reduction was detected in transfected cells.

Take “ISIS 121844: antisense oligonucleotide targeted to mouse B7.1; SEQ ID NO: 286; phosphorothioate, 2′-MOE on nucleotides 1-5 and 16-20 (antisense GCTCAGCCTTTCCACTTCAG; sugars from the 5' end e5 d10 e5, all phosphorothioate, methylation of C not given here)”: the “reduction of B7.2 mRNA in the lung” value in data set [1] (lung) came to 80%. For the same substance, the “B7.2 mRNA” value in data set [1] (lung tissue and draining lymph nodes of allergen-challenged mice) is recorded as “reduced”. In addition, the allergen-induced airway eosinophilia entry in data set [2] (BAL fluid) is reported as “reduced”. For the same substance, in data set [2] (intratracheal ASO, days 15-26), the “airway response to methacholine (Penh response)” value is given as “no effect”. Further, in data set [2] (mouse, in vivo), the “PMN numbers in BAL fluid” value was “reduced”. In data set [3], the “B7.1 mRNA” value is “reduced”. Also, the “target mRNA reduction” value in data set [4] is over 70%.
